“And” between values parts separate entries of the source, which are not always exact repeats. Equal entries are not always repeated. Where two headings read alike, the source gives them in different places.
Experiments:
Kir4.1 E158N = biological target: T1, Kir4.1 E158N (Homo sapiens, UniProt P78508, E158N); test: Whole-cell patch clamp, Kir4.1 point mutant E158N; format: cell-based
T1 construct: expressed in transfected cells; host or cells: CHO-K1
T1 sequence (P78508 1-379 E158N): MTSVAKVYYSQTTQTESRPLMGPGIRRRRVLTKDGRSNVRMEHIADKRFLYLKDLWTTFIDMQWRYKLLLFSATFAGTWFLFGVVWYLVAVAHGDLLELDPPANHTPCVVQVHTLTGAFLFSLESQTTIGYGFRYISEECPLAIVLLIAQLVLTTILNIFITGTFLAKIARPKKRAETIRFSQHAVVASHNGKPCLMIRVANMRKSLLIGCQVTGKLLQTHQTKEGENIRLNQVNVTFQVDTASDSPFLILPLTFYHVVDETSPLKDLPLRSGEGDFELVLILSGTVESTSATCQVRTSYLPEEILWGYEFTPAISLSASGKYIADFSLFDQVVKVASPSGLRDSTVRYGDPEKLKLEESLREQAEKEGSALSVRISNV
Method: Plasmids encoding WT human potassium channels Kir1.1, Kir2.1, Kir2.2, Kir4.1, and Kir4.2 were obtained from the Beijing Genomics Institute. All point mutations were constructed using the QuickChange II Site‐Directed Mutagenesis Kit (Stratagene) and subsequently verified by sequencing.
CHO‐K1 cells were maintained in DMEM/F12 growth medium containing 10% fetal bovine serum. Plasmids encoding the target genes (3600 ng) and enhanced green fluorescent protein (400 ng) were cotransfected into cells using Lipofectamine 2000 (Invitrogen) in accordance with the manufacturer's instructions. Cells were seeded onto poly‐d‐lysine (PDL)‐coated glass coverslips 1 h prior to electrophysiological recordings. All cells were cultured under standard conditions of 5% CO2 at 37 °C.
Whole‐cell patch‐clamp recordings were obtained either in transiently transfected CHO‐K1 cells or in primary cultured astrocytes at room temperature using standard patch‐clamp techniques with an Axopatch‐700B amplifier (Axon Instruments). The signals were filtered at 2 kHz and sampled at 20 kHz using the Digidata 1440A interface (Axon Instruments). The resistance of borosilicate glass pipettes was typically 2–4 MΩ when filled with the internal solution. Drug application was facilitated using a BPS perfusion system (ALA Scientific Instruments). Macroscopic currents generated by expressed potassium channels were recorded under the voltage‐clamp conditions with an internal pipette solution composed of (in mM): 140 KCl, 5 NaCl, 1 CaCl2, 1 MgCl2, 10 HEPES, and 10 EGTA, pH 7.2 adjusted with KOH. The external solution contained (in mM): 140 NaCl, 5 KCl, 2 CaCl2, 1 MgCl2, 10 glucose, and 10 HEPES, pH 7.4 adjusted with NaOH. Currents were elicited with a hyperpolarized voltage at −120 mV from the holding potential of −80 mV, followed by a ramp voltage depolarizing to +50 mV. Astrocytic resting membrane potentials were recorded under current‐clamp conditions (I = 0 pA) using standard internal and external solutions, determined immediately after achieving whole‐cell mode.

5-HT2B receptor = biological target: T2, 5-HT2B receptor (Homo sapiens, UniProt P41595); test: 5-HT2B functional assay (Fluo-4 calcium, FDSS); format: cell-based
T2 construct: expressed in transfected cells
T2 sequence (P41595 whole entry): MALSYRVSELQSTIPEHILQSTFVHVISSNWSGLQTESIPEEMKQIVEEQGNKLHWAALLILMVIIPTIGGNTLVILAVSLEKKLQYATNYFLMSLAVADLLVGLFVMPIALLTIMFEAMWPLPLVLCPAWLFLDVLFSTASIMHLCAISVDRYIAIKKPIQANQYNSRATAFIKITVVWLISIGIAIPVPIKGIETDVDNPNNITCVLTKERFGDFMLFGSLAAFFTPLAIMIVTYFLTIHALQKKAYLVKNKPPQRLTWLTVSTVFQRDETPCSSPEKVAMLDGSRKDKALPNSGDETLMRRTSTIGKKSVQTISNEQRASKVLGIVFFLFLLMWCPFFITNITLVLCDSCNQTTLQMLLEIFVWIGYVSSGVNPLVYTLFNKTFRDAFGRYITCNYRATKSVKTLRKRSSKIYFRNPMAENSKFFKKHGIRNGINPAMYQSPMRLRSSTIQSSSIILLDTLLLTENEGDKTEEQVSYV
Method: Cells with inducible expression of target receptor were cultured in 175‐cm^2 flasks until ≈80% confluence, washed once with phosphate‐buffered saline (PBS), and dissociated using 0.25% trypsin–EDTA. After neutralization with culture medium and centrifugation (800 rpm, 3 min), the cells were resuspended, counted, and seeded onto poly‐D‐lysine‐coated 96‐well black plates at a density of 4 × 10^4 cells/well. Expression of the target receptor was induced with 1 µg mL^−1 doxycycline. After 30 min at room temperature, the plates were incubated at 37 °C, 5% CO2 for 18−24 h until reaching ≈90% confluence. The medium was replaced with Ca^2⁺‐free extracellular buffer, washed once, and incubated with Fluo‐4 AM for 60 min at 37 °C in the dark. After washing twice with extracellular buffer, extracellular buffer was added (80 µL/well), and the cells were incubated for an additional 20 min at room temperature before fluorescence recording. Real‐time fluorescence changes were recorded using an FDSS/µCell system at 480 nm excitation and 540 nm emission with a sampling rate of 1 Hz. After a 10‐s baseline, the test compounds were added (20 µL/well), and fluorescence was recorded for 180 s. Subsequently, […] was added (20 µL/well), and the signals were monitored for a total of 360 s.
The agonistic effect (%) of compounds was calculated as follows: (1) Agonist%=Rcompound−Rcontrol/Rcontrol×100% where R control is the maximal fluorescence ratio after the addition of 0.5% DMSO and R compoundis the ratio obtained after compound treatment. Fluorescence response curves and EC50 values were used to evaluate the agonistic potency. The extracellular (Ca^2+‐free) buffer contained (in mM): 140 NaCl, 5 KCl, 1 MgCl2, 10 glucose, 10 HEPES, 2 probenecid; pH adjusted to 7.4 with NaOH.

C57BL/6J mice = test: Open field test (OFT) after chronic administration; format: in vivo; settings: chronic 10 mg kg−1 per day
Method: This test was used to assess anxiety‐related behaviors in the mice. C57BL/6J mice were individually habituated to a 40 × 40 × 40 cm^3 open field arena under dim light for […]. Locomotor activity during the final 5 min was digitally recorded (30 fps) and analyzed using Tracking Master (Future Life Science (Shanghai) Co., Ltd., Shanghai, China). The primary endpoints included the total ambulatory distance (cm) and center‐zone exploration frequency (20 × 20 cm^2 central area).

Q: With `c1ccc2c(c1)oc1ccc(Nc3ccnc(NCCCN4CCOCC4)n3)cc12` [JX3212, N^4-(dibenzo[b,d]furan-2-yl)-N^2-(3-morpholinopropyl)pyrimidine-2,4-diamine] as the compound, how does the inhibition at 3 µM (Kir4.1 E158N; 3 µM, mean ± SEM, read-out: current inhibition, Kir4.1 E158N) read?
A: 29.4 ± 2.66%

Q: What about the “Mutation: E158N inhibition, single recordings” value (Kir4.1 E158N; JX3212 3 µM (Fig 2D)) of the same compound?
A: 26.6694 and 31.4659 and 31.9554

Q: What about the inhibition at 3 µM (Kir4.1 E158N; JX3212 3 µM (Fig 2D), read-out: Mutation: E158N inhibition, single recordings) of the same compound?
A: 27.7%

Q: What about the EC50 (5-HT2B receptor; agonistic effect) of the same compound?
A: > 60 µM

Q: What about the activation at 60 µM (5-HT2B receptor; read-out: 5-HT2B agonistic effect, replicates, concentration 60 (presumably µM)) of the same compound?
A: 55.2%

Q: What about the Emax (5-HT2B receptor; read-out: 5-HT2B max activation%) of the same compound?
A: 62.4%

Q: And the “OFT total and central distance traveled (in words)” value (C57BL/6J mice)?
A: no pronounced differences

— paper PMC12903969, “Discovery of a Novel and Potent Kir4.1 Inhibitor as a Safe and Rapid‐Onset Antidepressant Agent in Mice” (Advanced Science, 2025)
